# Results published in patent US11286241B2, “Compositions and methods for treating cancer” (GLAX LLC, priority 2018, dated 2022).
# “Also recorded” adds a separate entry of the source.
# Tests used:
# Gli reporter = Gli reporter activity (FIG. 12E); assay type: cell-based
# [1] = test system: prostate cancer DU145 cells; experiment: Combination apoptosis in prostate cancer DU145 cells; assay type: cell-based; conditions: with PF05212384
# [2] = test system: hepatocarcinoma (HCC)/liver cancer cells; experiment: Cell viability of hepatocarcinoma cells (FIG. 13); assay type: cell-based
# [3] = test system: human breast cancer cells; experiment: Cell viability of human breast cancer cells (FIG. 12D); assay type: cell-based
# breast cancer xenograft = experiment: Xenografted tumor growth, breast cancer model (FIG. 18); assay type: in vivo
# lung cancer A549 cells = experiment: Apoptosis in lung cancer cells (FIG. 14); assay type: cell-based
# [4] = test system: human pancreatic cancer cells; experiment: Cell viability of human pancreatic cancer cells (FIG. 12A, B); assay type: cell-based
# [5] = test system: prostate cancer PC-3 cells; experiment: Apoptosis in prostate cancer cells (FIG. 14); assay type: cell-based
# liver cancer HEPG2 cells = experiment: Apoptosis in liver cancer HEPG2 cells; assay type: cell-based
# [6] = test system: prostate cancer xenograft; experiment: Xenografted tumor growth, prostate cancer model (FIG. 18); assay type: in vivo
# [7] = test system: Gli1, Patched-1, Cyclin D1, Bcl-2, and Nanog; experiment: Expression of Gli target genes in breast cancer cells (FIG. 12F); assay type: cell-based
# brain cancer stem cells = experiment: Cell viability of brain cancer stem cells (FIG. 15); assay type: cell-based, human
# [8] = test system: pancreatic cancer xenograft; experiment: Xenografted tumor growth, pancreatic cancer model (FIG. 18); assay type: in vivo
# [9] = test system: human normal pancreatic ductal epithelial (HPNE) cells; experiment: Cell viability of normal pancreatic ductal epithelial cells (FIG. 12C); assay type: cell-based
# human brain cancer cells = experiment: Cell viability of human brain cancer cells (FIG. 15); assay type: cell-based
# [10] = test system: colorectal cancer HCT116 cells; experiment: Combination apoptosis in colorectal cancer HCT116 cells; assay type: cell-based; conditions: with PF05212384, listed as SST7
# pancreatic cancer cells = experiment: Combination cell viability in pancreatic cancer cells (FIG. 17); assay type: cell-based, human
# [11] = test system: human normal ductal epithelial (HMEC) cells; experiment: Cell viability of normal ductal epithelial cells (FIG. 12D); assay type: cell-based
# liver cancer HEP3B cells = experiment: Combination apoptosis in liver cancer HEP3B cells; assay type: cell-based; conditions: with PF05212384, listed as SST7
# [12] = test system: pancreatic cancer AsPC-1 cells; experiment: Apoptosis in pancreatic cancer AsPC-1 cells; assay type: cell-based
# human normal hepatocytes = experiment: Cell viability of normal hepatocytes (FIG. 13); assay type: cell-based
# [13] = test system: human breast cancer cells; experiment: Combination cell viability in human breast cancer cells (FIG. 17); assay type: cell-based
# Gli pathway = Gli pathway in HCC (FIG. 13); assay type: cell-based
# liver cancer xenograft = experiment: Xenografted tumor growth, liver cancer model (FIG. 18); assay type: in vivo
# [14] = test system: human prostate cancer cells; experiment: Combination cell viability in human prostate cancer cells (FIG. 16); assay type: cell-based; conditions: with PF05212384 (PI3K/mTOR dual inhibitor)
# [15] = test system: prostate cancer PC-3 cells; experiment: Combination apoptosis in prostate cancer PC-3 cells; assay type: cell-based; conditions: with PF05212384
# [16] = with histone deacetylase inhibitor SAHA
smiles,measurement,setting,value
"OC(CNc1ccc(Cl)cc1)CNc1ccc(-c2nc3ccccc3o2)cc1 (stereo not shown) [Compound 8, 1-(4-(benzo[d]oxazol-2-yl)phenylamino)-3-(4-chlorophenylamino)propane-2-ol]",Gli reporter activity,Gli reporter,inhibits
same,"apoptosis, combination",[1],act in a cooperative manner to induce apoptosis
same,cell viability,[2],inhibits cell viability
same,cell viability,[3],inhibits cell viability
same,xenografted tumor growth,breast cancer xenograft,inhibits xenografted tumor growth
same,apoptosis,lung cancer A549 cells,induces apoptosis
same,cell viability,[4],inhibits cell viability
same,apoptosis,[5],induces apoptosis
same,apoptosis,liver cancer HEPG2 cells,induces apoptosis
same,xenografted tumor growth,[6],inhibits xenografted tumor growth
same,"expression of Gli1, Patched-1, Cyclin D1, Bcl-2, and Nanog",[7],inhibits
same,cell viability,brain cancer stem cells,inhibits cell viability
same,xenografted tumor growth,[8],inhibits xenografted tumor growth
same,cell viability,[9],has no effect
same,cell viability,human brain cancer cells,inhibits cell viability
same,"apoptosis, combination",[10],synergistic; also recorded: act in a cooperative manner to induce apoptosis
same,"cell viability, combination",pancreatic cancer cells; with PF05212384,co-operates
same,"cell viability, combination",pancreatic cancer cells; [16],co-operates
same,cell viability,[11],has no effect
same,"apoptosis, combination",liver cancer HEP3B cells,synergistic; also recorded: act in a cooperative manner to induce apoptosis
same,apoptosis,[12],induces apoptosis
same,cell viability,human normal hepatocytes,has no effect
same,"cell viability, combination",[13]; with PF05212384,co-operates
same,"cell viability, combination",[13]; [16],co-operates
same,Gli pathway,Gli pathway,inhibits Gli pathway
same,xenografted tumor growth,liver cancer xenograft,inhibits xenografted tumor growth
same,"cell viability, combination",[14],co-operates
same,"apoptosis, combination",[15],act in a cooperative manner to induce apoptosis
